Reference: patent publication US6461997B1, “Triazole sulfones having herbicidal activity” (Monsanto Technology LLC, priority 1999, dated 2002)

What follows are molecules tested on AEGCY (jointed goatgrass) (assay: Post-emergence herbicidal activity, cool season). Details: abraded plants sprayed at 300, 100, 30 and 10 g/ha; about 14 days after treatment.
Type: in vivo, Aegilops cylindrica
Summary of the method: (§1)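 Abraded seedling foliage receives a spray of test compound at four rates, 300 to 10 g/ha, in 50:50 acetone/water at 3,100 l/ha. After about 14 days in an 18/13° C. day/night greenhouse, inhibition is scored against abraded untreated controls and expressed as GR80.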

Row | Compound | Post-emergence activity GR80, AEGCY
1 | C=C(CC(F)(F)S(=O)(=O)c1ncn(C(=O)N(CC)CC)n1)C[Si](C)(C)C [Example 20] | [empty]
2 | CCN(CC)C(=O)n1cnc(S(=O)(=O)C(F)F)n1 [Example 15, 1-(N,N-diethylcarbamoyl)-3-(difluoromethylsulfonyl)-1,2,4-triazole] | [empty]

What follows are molecules tested on SOLNI (black nightshade) (assay: Pre-emergence herbicidal activity, warm season). Details: GR80 = lowest tested rate (300, 100, 30, 10 g/ha) with 80% or greater inhibition; approx. 14 days after treating; 30/21° C.
Type: in vivo, Solanum nigrum
Summary of the method: (§2)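 Seeds sown in sterilised fertilised topsoil received surface-applied compound in 50:50 acetone/water, typically at 300, 100, 30 and 10 g/ha, then greenhouse-grown at 30/21° C (warm-season species) or 18/13° C (cool-season species). Percent inhibition versus untreated plants was scored at about 14 days, giving GR80; an asterisk marks activity short of 80% at the top rate.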

Row | Compound | Pre-emergence activity (GR80) SOLNI
3 | C=C(CC(F)(F)S(=O)(=O)c1ncn(C(=O)N(CC)CC)n1)C[Si](C)(C)C [Example 20] | 100 g/ha
4 | CCN(CC)C(=O)n1cnc(S(=O)(=O)C(F)F)n1 [Example 15, 1-(N,N-diethylcarbamoyl)-3-(difluoromethylsulfonyl)-1,2,4-triazole] | 100 g/ha

Same assay, conditions: Solanum nigrum; pre-emergence application, 10 g/ha; read-out: Percent inhibition, weed SOLNI

Row | Compound | inhibition at 10 g/ha
5 | CCN(CC)C(=O)n1cnc(S(=O)(=O)C(F)F)n1 [Example 15, 1-(N,N-diethylcarbamoyl)-3-(difluoromethylsulfonyl)-1,2,4-triazole] | 0%

Same assay, conditions: Solanum nigrum; pre-emergence application, 30 g/ha; read-out: Percent inhibition, weed SOLNI

Row | Compound | inhibition at 30 g/ha
6 | CCN(CC)C(=O)n1cnc(S(=O)(=O)C(F)F)n1 [Example 15, 1-(N,N-diethylcarbamoyl)-3-(difluoromethylsulfonyl)-1,2,4-triazole] | 0%

Same assay, conditions: Solanum nigrum; pre-emergence application, 100 g/ha; read-out: Percent inhibition, weed SOLNI

Row | Compound | inhibition at 100 g/ha
7 | CCN(CC)C(=O)n1cnc(S(=O)(=O)C(F)F)n1 [Example 15, 1-(N,N-diethylcarbamoyl)-3-(difluoromethylsulfonyl)-1,2,4-triazole] | 0%

Same assay, conditions: Solanum nigrum; pre-emergence application, 300 g/ha; read-out: Percent inhibition, weed SOLNI

Row | Compound | inhibition at 300 g/ha
8 | CCN(CC)C(=O)n1cnc(S(=O)(=O)C(F)F)n1 [Example 15, 1-(N,N-diethylcarbamoyl)-3-(difluoromethylsulfonyl)-1,2,4-triazole] | 0%

Same assay, conditions: Solanum nigrum; pre-emergence application, 900 g/ha; read-out: Percent inhibition, weed SOLNI

Row | Compound | inhibition at 900 g/ha
9 | CCN(CC)C(=O)n1cnc(S(=O)(=O)C(F)F)n1 [Example 15, 1-(N,N-diethylcarbamoyl)-3-(difluoromethylsulfonyl)-1,2,4-triazole] | 0%

Each molecule was assayed on ABUTH (velvetleaf) (assay: Pre-plant incorporated (PPI) herbicidal activity, warm season). Details: Abutilon theophrasti; PPI application, 10 g/ha; read-out: Percent inhibition ABUTH.
Type: in vivo, Abutilon theophrasti
Description: (§3) In another set of tests, the pre-plant incorporated (PPI) activity of compounds of this invention was evaluated on the same species as for the pre-emergence tests described above. In the PPI tests the following procedure, designed to simulate PPI application, was used.
(§4) A pre-prepared topsoil mixture (described above) was placed in a pot and compacted to a depth of 1.0 to 1.25 cm from the top of the pot. Seeds of each of several monocotyledonous and dicotyledonous annual plant species were placed on top of the soil. A sufficient quantity of soil to cover the seeds and level fill the pot was weighed into an open container. A known amount of the test compound was dissolved or suspended in an organic solvent and applied by spraying to this cover soil. The cover soil was thoroughly mixed to distribute the test compound throughout the cover soil, and was then applied as a cover layer over the seeds. Untreated soil was used as a cover layer for control pots. After treatment the plants were placed in a greenhouse where they received 0.64 cm of overhead irrigation. All subsequent watering consisted of a light overhead mist and/or subirrigation as needed for germination and growth. Tables 9 and 10 below relate to warm season plant species which were placed after pre-emergence treatment in a greenhouse with a 30/21° C. day/night temperature regime. Tables 11 and 12 below relates to cool season plant species placed after pre-emergence treatment in a greenhouse or growth chamber with an 18/13° C. day/night temperature regime. Only the compounds of Examples 1, 6, 8, 11, 13 and 15-20 were included in PPI tests.
(§5) Approximately 14 days after planting and treating, the plants were observed and herbicidal efficacy recorded as percent inhibition by comparison with untreated plants.

Row | Compound | inhibition at 10 g/ha
10 | CCN(CC)C(=O)n1cnc(S(=O)(=O)C(F)F)n1 [Example 15, 1-(N,N-diethylcarbamoyl)-3-(difluoromethylsulfonyl)-1,2,4-triazole] | 0%

Same assay, conditions: Abutilon theophrasti; PPI application, 30 g/ha; read-out: Percent inhibition ABUTH

Row | Compound | inhibition at 30 g/ha
11 | CCN(CC)C(=O)n1cnc(S(=O)(=O)C(F)F)n1 [Example 15, 1-(N,N-diethylcarbamoyl)-3-(difluoromethylsulfonyl)-1,2,4-triazole] | 0%

Same assay, conditions: Abutilon theophrasti; PPI application, 100 g/ha; read-out: Percent inhibition ABUTH

Row | Compound | inhibition at 100 g/ha
12 | CCN(CC)C(=O)n1cnc(S(=O)(=O)C(F)F)n1 [Example 15, 1-(N,N-diethylcarbamoyl)-3-(difluoromethylsulfonyl)-1,2,4-triazole] | 20%

Same assay, conditions: Abutilon theophrasti; PPI application, 300 g/ha; read-out: Percent inhibition ABUTH

Row | Compound | inhibition at 300 g/ha
13 | CCN(CC)C(=O)n1cnc(S(=O)(=O)C(F)F)n1 [Example 15, 1-(N,N-diethylcarbamoyl)-3-(difluoromethylsulfonyl)-1,2,4-triazole] | 50%

Same assay, conditions: Abutilon theophrasti; PPI application, 900 g/ha; read-out: Percent inhibition ABUTH

Row | Compound | inhibition at 900 g/ha
14 | CCN(CC)C(=O)n1cnc(S(=O)(=O)C(F)F)n1 [Example 15, 1-(N,N-diethylcarbamoyl)-3-(difluoromethylsulfonyl)-1,2,4-triazole] | 40%

Same assay, conditions: PPI application, 10 g/ha

Row | Compound | Percent inhibition ABUTH
15 | C=C(CC(F)(F)S(=O)(=O)c1ncn(C(=O)N(CC)CC)n1)C[Si](C)(C)C [Example 20] | 0%

Same assay, conditions: PPI application, 30 g/ha

Row | Compound | Percent inhibition ABUTH
16 | C=C(CC(F)(F)S(=O)(=O)c1ncn(C(=O)N(CC)CC)n1)C[Si](C)(C)C [Example 20] | 0%

Same assay, conditions: PPI application, 100 g/ha

Row | Compound | Percent inhibition ABUTH
17 | C=C(CC(F)(F)S(=O)(=O)c1ncn(C(=O)N(CC)CC)n1)C[Si](C)(C)C [Example 20] | 0%

Same assay, conditions: PPI application, 300 g/ha

Row | Compound | Percent inhibition ABUTH
18 | C=C(CC(F)(F)S(=O)(=O)c1ncn(C(=O)N(CC)CC)n1)C[Si](C)(C)C [Example 20] | 30%

Same assay, conditions: PPI application, 900 g/ha

Row | Compound | Percent inhibition ABUTH
19 | C=C(CC(F)(F)S(=O)(=O)c1ncn(C(=O)N(CC)CC)n1)C[Si](C)(C)C [Example 20] | 80%

Same assay, conditions: pre-plant incorporated; GR80 = lowest tested rate with 80% or greater inhibition; approx. 14 days after treating; 30/21° C.

Row | Compound | PPI activity (GR80) ABUTH
20 | C=C(CC(F)(F)S(=O)(=O)c1ncn(C(=O)N(CC)CC)n1)C[Si](C)(C)C [Example 20] | 300 g/ha
21 | CCN(CC)C(=O)n1cnc(S(=O)(=O)C(F)F)n1 [Example 15, 1-(N,N-diethylcarbamoyl)-3-(difluoromethylsulfonyl)-1,2,4-triazole] | 100 g/ha

Each molecule was assayed on SINAR (wild mustard) (assay: Pre-plant incorporated (PPI) herbicidal activity, cool season). Details: pre-plant incorporated; lowest tested rate with 80% or greater inhibition; about 14 days.
Type: in vivo, Sinapis arvensis
Description: as §3, §4, §5

Row | Compound | PPI activity GR80, SINAR
22 | C=C(CC(F)(F)S(=O)(=O)c1ncn(C(=O)N(CC)CC)n1)C[Si](C)(C)C [Example 20] | * (activity observed, at least at highest rate, but <80% inhibition)
23 | CCN(CC)C(=O)n1cnc(S(=O)(=O)C(F)F)n1 [Example 15, 1-(N,N-diethylcarbamoyl)-3-(difluoromethylsulfonyl)-1,2,4-triazole] | 100 g/ha

Same assay, conditions: weed, PPI application, 10 g/ha

Row | Compound | Percent inhibition SINAR
24 | C=C(CC(F)(F)S(=O)(=O)c1ncn(C(=O)N(CC)CC)n1)C[Si](C)(C)C [Example 20] | 30%

Same assay, conditions: weed, PPI application, 30 g/ha

Row | Compound | Percent inhibition SINAR
25 | C=C(CC(F)(F)S(=O)(=O)c1ncn(C(=O)N(CC)CC)n1)C[Si](C)(C)C [Example 20] | 80%

Same assay, conditions: weed, PPI application, 100 g/ha

Row | Compound | Percent inhibition SINAR
26 | C=C(CC(F)(F)S(=O)(=O)c1ncn(C(=O)N(CC)CC)n1)C[Si](C)(C)C [Example 20] | 80%

Same assay, conditions: weed, PPI application, 300 g/ha

Row | Compound | Percent inhibition SINAR
27 | C=C(CC(F)(F)S(=O)(=O)c1ncn(C(=O)N(CC)CC)n1)C[Si](C)(C)C [Example 20] | 60%

Same assay, conditions: weed, PPI application, 900 g/ha

Row | Compound | Percent inhibition SINAR
28 | C=C(CC(F)(F)S(=O)(=O)c1ncn(C(=O)N(CC)CC)n1)C[Si](C)(C)C [Example 20] | 70%

Each molecule was assayed on SETFA (giant foxtail) (assay: Pre-emergence herbicidal activity, warm season). Details: GR80 = lowest tested rate (300, 100, 30, 10 g/ha) with 80% or greater inhibition; approx. 14 days after treating; 30/21° C.
Type: in vivo, Setaria faberi
Summary of the method: as §2

Row | Compound | Pre-emergence activity (GR80) SETFA
29 | C=C(CC(F)(F)S(=O)(=O)c1ncn(C(=O)N(CC)CC)n1)C[Si](C)(C)C [Example 20] | 100 g/ha
30 | CCN(CC)C(=O)n1cnc(S(=O)(=O)C(F)F)n1 [Example 15, 1-(N,N-diethylcarbamoyl)-3-(difluoromethylsulfonyl)-1,2,4-triazole] | 100 g/ha

Same assay, conditions: Setaria faberi; pre-emergence application, 10 g/ha; read-out: Percent inhibition, weed SETFA

Row | Compound | inhibition at 10 g/ha
31 | CCN(CC)C(=O)n1cnc(S(=O)(=O)C(F)F)n1 [Example 15, 1-(N,N-diethylcarbamoyl)-3-(difluoromethylsulfonyl)-1,2,4-triazole] | 0%

Same assay, conditions: Setaria faberi; pre-emergence application, 30 g/ha; read-out: Percent inhibition, weed SETFA

Row | Compound | inhibition at 30 g/ha
32 | CCN(CC)C(=O)n1cnc(S(=O)(=O)C(F)F)n1 [Example 15, 1-(N,N-diethylcarbamoyl)-3-(difluoromethylsulfonyl)-1,2,4-triazole] | 0%

Same assay, conditions: Setaria faberi; pre-emergence application, 100 g/ha; read-out: Percent inhibition, weed SETFA

Row | Compound | inhibition at 100 g/ha
33 | CCN(CC)C(=O)n1cnc(S(=O)(=O)C(F)F)n1 [Example 15, 1-(N,N-diethylcarbamoyl)-3-(difluoromethylsulfonyl)-1,2,4-triazole] | 99%

Same assay, conditions: Setaria faberi; pre-emergence application, 300 g/ha; read-out: Percent inhibition, weed SETFA

Row | Compound | inhibition at 300 g/ha
34 | CCN(CC)C(=O)n1cnc(S(=O)(=O)C(F)F)n1 [Example 15, 1-(N,N-diethylcarbamoyl)-3-(difluoromethylsulfonyl)-1,2,4-triazole] | 70%

Same assay, conditions: Setaria faberi; pre-emergence application, 900 g/ha; read-out: Percent inhibition, weed SETFA

Row | Compound | inhibition at 900 g/ha
35 | CCN(CC)C(=O)n1cnc(S(=O)(=O)C(F)F)n1 [Example 15, 1-(N,N-diethylcarbamoyl)-3-(difluoromethylsulfonyl)-1,2,4-triazole] | 100%

The molecules below were run on AGSST (creeping bentgrass) (assay: Post-emergence herbicidal activity, cool season). Details: abraded plants sprayed at 300, 100, 30 and 10 g/ha; about 14 days after treatment.
Type: in vivo, Agrostis stolonifera
Summary of the method: as §1

Row | Compound | Post-emergence activity GR80, AGSST
36 | C=C(CC(F)(F)S(=O)(=O)c1ncn(C(=O)N(CC)CC)n1)C[Si](C)(C)C [Example 20] | [empty]
37 | CCN(CC)C(=O)n1cnc(S(=O)(=O)C(F)F)n1 [Example 15, 1-(N,N-diethylcarbamoyl)-3-(difluoromethylsulfonyl)-1,2,4-triazole] | [empty]

Each molecule was assayed on CIRAR (canada thistle (seedling)) (assay: Pre-emergence herbicidal activity, warm season). Details: GR80 = lowest tested rate (300, 100, 30, 10 g/ha) with 80% or greater inhibition; approx. 14 days after treating; 30/21° C.
Type: in vivo, Cirsium arvense
Summary of the method: as §2

Row | Compound | Pre-emergence activity (GR80) CIRAR
38 | C=C(CC(F)(F)S(=O)(=O)c1ncn(C(=O)N(CC)CC)n1)C[Si](C)(C)C [Example 20] | 100 g/ha
39 | CCN(CC)C(=O)n1cnc(S(=O)(=O)C(F)F)n1 [Example 15, 1-(N,N-diethylcarbamoyl)-3-(difluoromethylsulfonyl)-1,2,4-triazole] | 30 g/ha
